Experimental data as given in patent US4603142A, “Cholesterol lowering method of use” (Wisconsin Alumni Research Foundation, priority 1984, dated 1986).

What was measured:
[1] = Serum lipids in 13-week-old WLH male chickens; assay type: in vivo, chicken; settings: 20 ppm in corn diet, fed four weeks
Excerpt: (§1) These responses were attributed to the presence in the small grains of relatively high concentrations of beta-D-glucans and pentosans. A long-standing interest in lipid metabolism prompted us to examine certain lipogenic and cholesterolgenic enzymes in the tissues of these birds. Methods used for handling blood samples, preparing subcellular fractions of liver and assay procedures for beta-hydroxy-beta-methylglutaryl coenzyme A (HMG Co-A) reductase, fatty acid synthetase (FAS), plasma cholesterol and triglycerides and the statistical treatment of the data have been described [Qureshi AA et al. (1980): Regulation of lipid metabolism in chicken livers by dietary cereals, J Nutr 110:388-393].
(§2) Cholesterol inhibitor I was re-chromatographed by HPLC and the UV absorption spectrum obtained. Maximum absorption occurred at 292 nm. This purified fraction was used for high resolution mass spectrometric analysis. Several scans were made using ionization temperatures from 90-180 degrees Centigrade to increase the possibility of detecting impurities. The high resolution mass spectrometric analysis and measurements of different peaks gave a molecular ion peak at m/e 424 and main peaks at m/e 385, 205 and 165 corresponding to C29 H44 O2 (molecular formula) C25 H36 O2, C13 H17 O2 and C10 H13 O2 moieties, respectively, which are characteristic fragmentation moieties for d-alpha-tocotrienol. Lemon grass oil is a rich source of d-alpha-tocotrienol. This product and cholesterol inhibitor I at 20 ppm were compared with the petroleum ether soluble fraction of HPBF (20% equivalent HPBF) in a group of older male White Leghorn chickens (Table 3). The results shown on Table 3 confirm those previously recorded for petroleum ether solubles of HPBF and cholestrol inhibitor I. In a final experiment, the effects of cholestrol inhibitor I and lemon grass oil on hepatocyte HMG Co-A reductase and FAS activities were tested. Both components tested in the concentration range 5-100 microgram/ml, produced a concentration-dependent suppression of HMG Co-A reductase and concentration-dependent enhancement of FAS activity (Table 4).
^1 Feeding period was four weeks; Time of killing was 0800; Data
expressed as mean ± SD; N = 8 chickens per group; HMGCoA reductase =

[2] = molecular target: T1, β-hydroxy-β-methylglutaryl-CoA reductase (Homo sapiens, UniProt P04035); assay: In vitro HMG-CoA reductase activity in isolated hepatocytes of chicken; assay type: cell-based; settings: incubation 15 minutes; for β-Hydroxy-β Methylglutaryl-CoA Reductase: means of two replicates
T1 construct: ISOLATED HEPATOCYTES OF CHICKEN; endogenous in cells; host or cells: isolated hepatocytes of chicken
T1 sequence (P04035 1-888): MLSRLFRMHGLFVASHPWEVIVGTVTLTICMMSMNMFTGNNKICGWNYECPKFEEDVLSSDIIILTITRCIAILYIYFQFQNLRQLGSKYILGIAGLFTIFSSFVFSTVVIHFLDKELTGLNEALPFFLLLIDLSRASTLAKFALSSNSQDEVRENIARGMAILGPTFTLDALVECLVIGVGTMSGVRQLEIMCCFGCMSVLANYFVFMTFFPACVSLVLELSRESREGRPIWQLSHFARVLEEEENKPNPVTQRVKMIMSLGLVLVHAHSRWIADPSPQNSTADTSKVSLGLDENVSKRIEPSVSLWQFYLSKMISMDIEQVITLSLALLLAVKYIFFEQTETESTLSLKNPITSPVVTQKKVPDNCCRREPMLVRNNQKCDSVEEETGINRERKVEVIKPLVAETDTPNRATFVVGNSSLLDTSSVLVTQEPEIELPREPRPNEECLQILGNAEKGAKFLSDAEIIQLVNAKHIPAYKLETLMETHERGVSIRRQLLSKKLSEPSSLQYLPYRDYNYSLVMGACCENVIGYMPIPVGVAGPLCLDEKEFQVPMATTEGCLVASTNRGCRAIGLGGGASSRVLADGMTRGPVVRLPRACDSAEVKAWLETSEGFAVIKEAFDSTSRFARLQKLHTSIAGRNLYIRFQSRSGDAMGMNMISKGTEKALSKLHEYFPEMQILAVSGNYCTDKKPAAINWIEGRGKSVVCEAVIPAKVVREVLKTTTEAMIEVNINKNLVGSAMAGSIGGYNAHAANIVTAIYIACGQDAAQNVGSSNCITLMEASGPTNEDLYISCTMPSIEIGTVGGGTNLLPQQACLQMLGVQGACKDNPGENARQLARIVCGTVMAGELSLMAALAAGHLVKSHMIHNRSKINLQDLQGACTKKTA
Excerpt: These observed effects on lipogensis and cholesterogenesis could be attributed to the chemical constituents of HPBF, but clearly could not be attributed to the water insoluble plant fibers because they were not present in the latter feeding trials. Moreover, these effects were also obtained in vitro using isolated hepatocytes from chickens and rats. […] Proc. 42:1973 (Abstr.)]. Conditions for the in vitro evaluation of the solvent extracts have been described [Qureshi AA et al. (1983): Inhibition of cholesterol and fatty acid biosynthesis in liver enzymes and chicken hepatocytes by polar fractions of garlic, Lipids 18:343-348].
as §2
^1 Tenweek-old female chickens were fed standard cornsoy diet. They
were fasted for 48 hrs. and refed 72 hrs. prior to the preparation of
^2 Incubation period was 15 minutes. Values represent means of two
replicates within incubation set.
^3 pmoles of mevalonic acid synthesized per minute per mg of […]

HMG-CoA reductase [3] = molecular target: T2, HMG-CoA reductase (Homo sapiens, UniProt P04035); assay: HPLC fractions checked in vitro for suppression of HMG Co-A reductase in isolated hepatocytes; assay type: cell-based; set-up: suppress HMG Co-A reductase activity in isolated hepatocytes; endogenous in cells; host or cells: isolated hepatocytes; settings: HPLC fractions of petroleum ether solubles
T2 sequence (P04035 1-888): T1 sequence (P04035 1-888)

HMG-CoA reductase [4] = molecular target: T2, HMG-CoA reductase; assay: Hepatic HMG-CoA reductase activity in 13-week-old WLH male chickens; assay type: in vivo, chicken; set-up: preparing subcellular fractions of liver and assay procedures for beta-hydroxy-beta-methylglutaryl coenzyme A (HMG Co-A) reductase; from tissue; host or cells: chicken liver (microsomal fraction); settings: 20 ppm in corn diet, fed four weeks, liver
Excerpt: as §1
Cholesterol inhibitor I was re-chromatographed by HPLC and the UV absorption spectrum obtained. Maximum absorption occurred at 292 nm. This purified fraction was used for high resolution mass spectrometric analysis. Several scans were made using ionization temperatures from 90-180 degrees Centigrade to increase the possibility of detecting impurities. […] The results shown on Table 3 confirm those previously recorded for petroleum ether solubles of HPBF and cholestrol inhibitor I. In a final experiment, the effects of cholestrol inhibitor I and lemon grass oil on hepatocyte HMG Co-A reductase and FAS activities were tested. […]
expressed as mean ± SD; N = 8 chickens per group; HMGCoA reductase = […]

SMILES: CC(C)=CCC/C(C)=C/CC/C(C)=C/CC[C@]1(C)CCc2c(C)c(O)c(C)c(C)c2O1 [Cholesterol inhibitor I, 2,5,7,8-tetramethyl-2 (4,8, 12-trimethyltrideca-3,7, 11-trienyl)chroman-6-ol]
- Concentration in Serum LDL-Chol., percentage of control [1]: 66 Percentage of respective contr
- Concentration in Serum HDL-Chol. ([1]; mean ± SD, N = 8): 58 ± 3 mg/100 ml
- Concentration in Serum LDL-Chol. ([1]; mean ± SD, N = 8): 44 ± 3 mg/100 ml
- Concentration in Serum Total Cholesterol ([1]; mean ± SD, N = 8): 103 mg/100 ml
- β-Hydroxy-β Methylglutaryl-CoA Reductase ([2]; 5 μg/ml): 45 pmoles of mevalonic acid synth
- β-Hydroxy-β Methylglutaryl-CoA Reductase ([2]; 10 μg/ml): 40 pmoles of mevalonic acid synth
- β-Hydroxy-β Methylglutaryl-CoA Reductase ([2]; 15 μg/ml): 31 pmoles of mevalonic acid synth
- β-Hydroxy-β Methylglutaryl-CoA Reductase ([2]; 20 μg/ml): 30 pmoles of mevalonic acid synth
- β-Hydroxy-β Methylglutaryl-CoA Reductase ([2]; 25 μg/ml): 28 pmoles of mevalonic acid synth
- β-Hydroxy-β Methylglutaryl-CoA Reductase ([2]; 50 μg/ml): 22 pmoles of mevalonic acid synth
- β-Hydroxy-β Methylglutaryl-CoA Reductase ([2]; 100 μg/ml): 23 pmoles of mevalonic acid synth
- remaining activity at 5 µg/mL ([2]; 0.25 h, 5 μg/ml, read-out: β-Hydroxy-β Methylglutaryl-CoA Reductase, percentage of control): 87%
- remaining activity at 10 µg/mL ([2]; 0.25 h, 10 μg/ml, read-out: β-Hydroxy-β Methylglutaryl-CoA Reductase, percentage of control): 77%
- remaining activity at 15 µg/mL ([2]; 0.25 h, 15 μg/ml, read-out: β-Hydroxy-β Methylglutaryl-CoA Reductase, percentage of control): 60%
- remaining activity at 20 µg/mL ([2]; 0.25 h, 20 μg/ml, read-out: β-Hydroxy-β Methylglutaryl-CoA Reductase, percentage of control): 57%
- remaining activity at 25 µg/mL ([2]; 0.25 h, 25 μg/ml, read-out: β-Hydroxy-β Methylglutaryl-CoA Reductase, percentage of control): 54%
- remaining activity at 50 µg/mL ([2]; 0.25 h, 50 μg/ml, read-out: β-Hydroxy-β Methylglutaryl-CoA Reductase, percentage of control): 42%
- remaining activity at 100 µg/mL ([2]; 0.25 h, 100 μg/ml, read-out: β-Hydroxy-β Methylglutaryl-CoA Reductase, percentage of control): 44%
- Effect on HMG Co-A reductase in isolated hepatocytes (HMG-CoA reductase [3]): significant inhibition
- HMG-CoA Reductase, percentage of control (HMG-CoA reductase [4]): 63 Percentage of respective contr
- HMG-CoA Reductase (HMG-CoA reductase [4]; mean ± SD, N = 8): 305 ± 18 pmoles of mevalonic acid synth
